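Cultured in 96-well plates, cells were exposed to test compound for 48 hours across five concentrations. TGI: total growth inhibition.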
Experiments:
Assay in all cases: NCI tumour cell line growth inhibition, 48 h
ACHN renal = tested on: ACHN renal
NCI-H460 lung = tested on: NCI-H460 lung
SK-OV-3 ovarian = tested on: SK-OV-3 ovarian
SK-MEL-2 melanoma = tested on: SK-MEL-2 melanoma
UO-31 renal = tested on: UO-31 renal
PC-3 prostate = tested on: PC-3 prostate
OVCAR-5 ovarian = tested on: OVCAR-5 ovarian
KM12 colon = tested on: KM12 colon
CAKI-1 renal = tested on: CAKI-1 renal
CCRF-CEM leukemia = tested on: CCRF-CEM leukemia
LOX IMVI melanoma = tested on: LOX IMVI melanoma
NCI/ADR-RES ovarian = tested on: NCI/ADR-RES ovarian
SF-539 CNS = tested on: SF-539 CNS
HT29 colon = tested on: HT29 colon
BT-549 breast = tested on: BT-549 breast
TK-10 renal = tested on: TK-10 renal
HCT-15 colon = tested on: HCT-15 colon
HL-60(TB) leukemia = tested on: HL-60(TB) leukemia
EKVX NSCLC = tested on: EKVX NSCLC
HOP-92 NSCLC = tested on: HOP-92 NSCLC
UACC-257 melanoma = tested on: UACC-257 melanoma
M14 melanoma = tested on: M14 melanoma
MDA-MB-231 breast = tested on: MDA-MB-231 breast
A549 NSCLC = tested on: A549 NSCLC
SNB-75 CNS = tested on: SNB-75 CNS
HS 578T breast = tested on: HS 578T breast
OVCAR-8 ovarian = tested on: OVCAR-8 ovarian
COLO 205 colon = tested on: COLO 205 colon
SN12C renal = tested on: SN12C renal
SF-268 CNS = tested on: SF-268 CNS
DU-145 prostate = tested on: DU-145 prostate
MDA-MB-435 = tested on: MDA-MB-435
SR leukemia = tested on: SR leukemia
UACC-62 melanoma = tested on: UACC-62 melanoma
SNB-19 CNS = tested on: SNB-19 CNS
HOP-62 NSCLC = tested on: HOP-62 NSCLC
T-47D breast = tested on: T-47D breast
SK-MEL-5 melanoma = tested on: SK-MEL-5 melanoma
MCF7 breast = tested on: MCF7 breast
OVCAR-4 ovarian = tested on: OVCAR-4 ovarian
MALME-3M melanoma = tested on: MALME-3M melanoma
MDA-N = tested on: MDA-N
IGROV1 ovarian = tested on: IGROV1 ovarian
NCI-H23 lung = tested on: NCI-H23 lung
NCI-H522 lung = tested on: NCI-H522 lung
OVCAR-3 ovarian = tested on: OVCAR-3 ovarian
SK-MEL-28 melanoma = tested on: SK-MEL-28 melanoma
HCC-2998 colon = tested on: HCC-2998 colon
HCT-116 colon = tested on: HCT-116 colon
MOLT-4 leukemia = tested on: MOLT-4 leukemia
SW-620 colon = tested on: SW-620 colon
786-0 renal = tested on: 786-0 renal
U251 CNS = tested on: U251 CNS
NCI-H226 lung = tested on: NCI-H226 lung
RPMI-8226 leukemia = tested on: RPMI-8226 leukemia
SF-295 CNS = tested on: SF-295 CNS
A498 renal = tested on: A498 renal
K-562 leukemia = tested on: K-562 leukemia
RXF 393 renal = tested on: RXF 393 renal

Measured: TGI

c1ccc(Cn2c(-c3ccc(-c4ccccc4)cc3)cc3ccccc32)cc1
not listed: A498 renal | K-562 leukemia | RXF 393 renal
> 100 µM: all other assays above

Cc1cn(Cc2cccc(C3=NCCCN3)c2)c(=O)n(Cc2cccc(C3=NCCCN3)c2)c1=O
not listed: SF-539 CNS | HT29 colon | NCI-H226 lung | RXF 393 renal
> 100 µM: all other assays above

Cc1c2ccncc2c(C)c2c1sc1ccccc12
47.2 µM: UACC-257 melanoma
29.6 µM: OVCAR-3 ovarian
21.1 µM: SF-539 CNS
29.1 µM: MALME-3M melanoma
46.7 µM: OVCAR-5 ovarian
15.7 µM: ACHN renal
36.5 µM: SNB-75 CNS
50.4 µM: SK-MEL-2 melanoma
39.5 µM: HS 578T breast
25 µM: NCI/ADR-RES ovarian
30.4 µM: CCRF-CEM leukemia
23.8 µM: SN12C renal | U251 CNS
21.9 µM: HOP-62 NSCLC
23.9 µM: RXF 393 renal
25.1 µM: OVCAR-8 ovarian
44.1 µM: MDA-MB-231 breast
18.1 µM: MCF7 breast
25.2 µM: EKVX NSCLC | NCI-H23 lung
28.5 µM: HOP-92 NSCLC
32.7 µM: SK-MEL-28 melanoma
22.1 µM: SW-620 colon
34.4 µM: SK-OV-3 ovarian
15.8 µM: HCT-116 colon
37.8 µM: OVCAR-4 ovarian
8.98 µM: SR leukemia
41.1 µM: K-562 leukemia
25.9 µM: HCC-2998 colon
29.7 µM: DU-145 prostate
26.4 µM: PC-3 prostate | M14 melanoma | SF-295 CNS
22.6 µM: HT29 colon
48.9 µM: TK-10 renal
23.1 µM: A498 renal | SK-MEL-5 melanoma | NCI-H522 lung
14.3 µM: NCI-H460 lung
47.6 µM: MDA-N
48 µM: RPMI-8226 leukemia
17.5 µM: 786-0 renal
31.2 µM: KM12 colon
18.6 µM: UACC-62 melanoma
18.3 µM: A549 NSCLC
64.3 µM: SF-268 CNS
27.9 µM: CAKI-1 renal
35.9 µM: BT-549 breast
21.6 µM: IGROV1 ovarian
39.3 µM: MDA-MB-435
> 100 µM: T-47D breast
31 µM: HCT-15 colon
21.5 µM: LOX IMVI melanoma
42.9 µM: NCI-H226 lung
26.9 µM: COLO 205 colon
17.3 µM: HL-60(TB) leukemia
26.7 µM: SNB-19 CNS
7.28 µM: MOLT-4 leukemia

Oc1ccc2ccccc2c1C=NCc1c(O)ccc2ccccc12
74.5 µM: A498 renal
50.5 µM: NCI-H522 lung
70.7 µM: EKVX NSCLC
9.34 µM: RXF 393 renal
not listed: HL-60(TB) leukemia | NCI-H226 lung
> 100 µM: all other assays above

Source: PubChem BioAssay (NCI)
